The term IC50 denotes the concentration that inhibits the measured activity by half. Low values mean greater potency in that assay, high ones weaker potency in that assay.

One data set deals with T1, intestinal SGLT1 (Mus musculus, UniProt Q8C3K6).
T1 construct: from tissue; host or cells: small intestine of living male C57BL/6-Tyrc-Brd mice
T1 sequence (Q8C3K6 1-665): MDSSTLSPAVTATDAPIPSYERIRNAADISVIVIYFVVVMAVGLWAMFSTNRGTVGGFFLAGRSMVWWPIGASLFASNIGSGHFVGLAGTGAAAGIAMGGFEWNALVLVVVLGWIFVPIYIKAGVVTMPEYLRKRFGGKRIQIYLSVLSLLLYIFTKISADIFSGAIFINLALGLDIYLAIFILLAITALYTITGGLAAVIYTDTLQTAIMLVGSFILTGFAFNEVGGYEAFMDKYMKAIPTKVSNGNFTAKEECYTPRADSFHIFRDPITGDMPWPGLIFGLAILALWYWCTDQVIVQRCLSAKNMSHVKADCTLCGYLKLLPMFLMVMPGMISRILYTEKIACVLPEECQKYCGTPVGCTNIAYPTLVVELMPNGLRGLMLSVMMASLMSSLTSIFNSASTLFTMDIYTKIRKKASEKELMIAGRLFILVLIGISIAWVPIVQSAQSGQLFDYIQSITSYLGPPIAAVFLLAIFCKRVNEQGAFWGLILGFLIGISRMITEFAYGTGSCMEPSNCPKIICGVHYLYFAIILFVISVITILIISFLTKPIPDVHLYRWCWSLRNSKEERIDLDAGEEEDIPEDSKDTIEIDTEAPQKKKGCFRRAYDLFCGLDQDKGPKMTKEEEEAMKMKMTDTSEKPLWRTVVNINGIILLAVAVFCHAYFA
Description: Glucose-containing meal challenge in C57 mice. The format is in vivo. How it is done:
A meal consisting of low-fat diet (10% kcal as fat, D12450B; Research Diets, New Brunswick, NJ) supplemented with glucose was prepared by adding 50 g of low-fat diet powder and 9.4 g of glucose to water with a final volume of 94 mL. At 8:30 am, C57 mice in the fed state received either vehicle or 50 mg/kg LP-925219 by oral gavage; 30 min later, at Time = 0, each mouse received 25 mL/kg of the above meal (9.2 g/kg glucose, 2.5 g/kg protein, 0.6 g/kg fat) by oral gavage as described previously (Powell et al. [2013b]). Blood obtained from unanesthetized mice at 0, 10, and 30 min by tail nick, and at 60 min by retro-orbital bleed, was assayed for whole blood glucose using an Accu-Chek Aviva glucometer (Roche Diagnostics, Indianapolis, IN). The blood obtained at 60 min was also used to measure circulating levels of total GLP-1 (tGLP-1; Glucagon-Like Peptide-1 Total ELISA Kit, catalog #EZGLP1T-36K, EMD Millipore, Billerica, MA) as described previously (Powell et al. [2013b]). After their blood was drawn at 60 min, mice were anesthetized with isoflurane (TW Medical Veterinary Supply, Lago Vista, TX) and then euthanized by cervical dislocation. Cecal contents were then collected and analyzed for glucose and pH as described previously (Powell et al. [2013b]). Blood glucose time-course data were converted to area under the curve (AUC) values by trapezoidal summation using GraphPad Prism v4.03.
Mice received either vehicle or LP-925219 at a dose of 50 mg/kg (n = 5 for each group) by oral gavage; 30 min later the mice received, by oral gavage at Time 0, a glucose-containing meal challenge. (A) Blood glucose levels were measured at 0, 10, 30, and 60 min; for each mouse, blood glucose levels were used to calculate an AUC value for statistical analysis. At 60 min, blood was obtained for (B) tGLP-1 levels, and cecal contents were obtained and assayed for (C) cecal glucose and (D) cecal pH. LP-925219-treated value different from vehicle, *P < 0.05, **P < 0.01, ***P < 0.001. AUC, area under the curve.

A further data set deals with T2, human SGLT1 (Homo sapiens, UniProt P13866).
T2 sequence (P13866 1-664): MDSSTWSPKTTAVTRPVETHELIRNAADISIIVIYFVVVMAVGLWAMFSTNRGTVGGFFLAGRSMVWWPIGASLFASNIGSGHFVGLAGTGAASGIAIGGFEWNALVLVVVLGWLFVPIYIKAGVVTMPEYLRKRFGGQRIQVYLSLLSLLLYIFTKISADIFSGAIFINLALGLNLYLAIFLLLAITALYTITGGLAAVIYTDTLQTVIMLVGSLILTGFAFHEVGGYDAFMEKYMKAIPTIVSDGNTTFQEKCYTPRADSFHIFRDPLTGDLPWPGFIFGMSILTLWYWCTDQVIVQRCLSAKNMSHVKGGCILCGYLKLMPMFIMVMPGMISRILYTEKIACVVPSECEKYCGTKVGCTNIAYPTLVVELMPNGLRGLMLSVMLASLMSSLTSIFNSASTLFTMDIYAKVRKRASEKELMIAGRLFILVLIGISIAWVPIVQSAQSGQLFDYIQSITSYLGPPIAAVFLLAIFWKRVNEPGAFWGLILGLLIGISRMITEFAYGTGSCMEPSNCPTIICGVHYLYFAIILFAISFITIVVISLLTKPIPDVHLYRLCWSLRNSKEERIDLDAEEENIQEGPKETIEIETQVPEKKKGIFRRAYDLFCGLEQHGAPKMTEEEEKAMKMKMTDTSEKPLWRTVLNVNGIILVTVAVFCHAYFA
Description: Compound washout study, cells expressing human SGLT1.

Setting [1] is: 50 mg/kg oral gavage, 60 min after meal, vs vehicle.

Description for human SGLT1: Cells expressing human SGLT2 were studied using the above protocol. […] Cells expressing human SGLT2 were studied using the above protocol.

Take `COc1ccc(Cc2cc([C@@H]3O[C@H](SC)[C@@H](O)[C@H](O)[C@H]3O)ccc2Cl)cc1` [LP-925219]: the “blood glucose AUC after meal challenge” value at intestinal SGLT1 (50 mg/kg oral gavage 30 min before meal, 0-60 min, vs vehicle, P < 0.05) is listed as “significant decrease”. On intestinal SGLT1 (setting [1]), the cecal glucose entry is on record as “more glucose”, the “cecal pH” value is “lower pH” and the “circulating total GLP-1” value is recorded as “increased levels”. Besides, the diarrhea entry at intestinal SGLT1 (50 mg/kg oral gavage, short-term study) is given as “not observed”. Also, the midpoint of inhibition against human SGLT1 (no wash protocol), the IC50, lay at 13 nM. On human SGLT1 (washout protocol, 18-20 h recovery after 30 min treatment), this molecule gave an IC50 of 1310 nM.

For the origin of these results see paper PMC4448982, “LP-925219 maximizes urinary glucose excretion in mice by inhibiting both renal SGLT1 and SGLT2” (Pharmacology Research & Perspectives, 2015).
